Reference: patent US20230024302A1, “2,3,5-TRISUBSTITUTED PYRAZOLO[1,5-A]PYRIMIDINE COMPOUNDS” (Arcus Biosciences, Inc., priority 2019, published 2023)

Key:
PI3Kγ (p120γ) = target: T1, PI3Kγ (p120γ) (Homo sapiens, UniProt P48736); experiment: Inhibition of PI3K kinase activity (ADP Glo), PI3Kγ; settings: Table 1, p120γ, read-out: biochemical potency (PI3Kγ IC50)
T1 construct: purchased Promega V1761
Protocol: Compounds were evaluated to determine the potency with which they inhibited the kinase activity of the Class I PI3K subunits p110α/p85α (Promega, Cat #V1721), p110β/p85α (Promega, Cat #V1751), p120γ (Promega, Cat #V1761) and p110δ/p85α (Promega, Cat #V1771). Activity was determined as a function of ADP (adenosine diphosphate) generated from ATP consumed during the phosphorylation of Phosphatidylinositol 4,5-bisphosphate (PIP2) (Promega, Cat #V1701) to yield Phosphatidylinositol (3,4,5)-trisphosphate (PIP3). ADP levels in the assay mixture at the end of the reaction were quantitated using ADP Glo (Promega, Cat #V9103) according to the manufacturer's recommended protocol.
Enzyme was prepared for each of the PI3K subunits in 100 mM HEPES, pH 7.4, 100 mM NaCl, 6 mM MgCl2 and 0.05% BSA. p110α/p85α was prepared at 2 nM (2×), p110β/p85α was prepared at 7 nM (2×), p120γ was prepared at 8 nM (2×) and p110δ/p85α was prepared at 2 nM (2×). Five microliters of 2× enzyme dilution of each PI3K subunit were added to a 384-well white Opti-plates pre-dispensed with compound and allowed to incubate for 1 h at rt. A substrate mix containing 0.1 mg/ml (2×) of PIP2 and 50 μM (2×) ATP (Promega, Cat #V915) was prepared in 25 mM HEPES and 0.5 mM EGTA. Reactions were initiated by addition of 5 μl of 2× substrate mix to each well of the plates containing various PI3K isoforms and allowed to proceed for 60 min at rt. Ten microliters of ADP Glo reagent 1 were added to the wells of each plate and allowed to incubate at rt for 45 min according to the manufacturer's directions. Following incubation, 20 μl of ADP Glo reagent 2 was added to each plate and allowed to incubate for an additional 45 min. Luminescent signal, generated by ADP Glo, was quantified by reading on a Perkin Elmer Envision multimode reader. Compound potencies (IC50's) were determined using a standard 4-parameter fit non-linear regression fit.

PI3Kγ = target: T2, PI3Kγ (Homo sapiens, UniProt P48736); experiment: PI3Kγ cellular assay in THP-1 cells (AKT pS473 AlphaLISA); type: cell-based; settings: Table 1, rhMCP-1 stimulated AKT pS473, read-out: cellular potency (PI3Kγ IC50)
T2 construct: host or cells: THP-1
Protocol: Twenty microliters of serum starved THP-1 cells were added to the compound plate in serum free DMEM at a density of 9×10^6 cells per ml. Final assay conditions comprised 1.8×10^5 THP-1 cells per well with test compounds in 2% DMSO across a concentration range from 4 nM to 30 μM. […] Briefly, 10 μL of 4× lysis buffer was added to cells after stimulation. Following 60 min incubation at rt, 10 μL of cell lysate was transferred to a fresh 384-well Opti-plate to which 5 μL of AlphaLisa acceptor beads and 5 μL of AlphaLisa donor beads had been added. […] PI3Kγ activity was evaluated as a correlate of endogenous AKT phosphorylation levels. Percentage maximum activity in each test well was calculated based on DMSO (100% activity) and positive control treated cell wells (0% activity). The potencies (IC50's) of test compounds were determined using a standard 4-parameter fit non-linear regression fit.

T1 sequence (P48736 whole entry): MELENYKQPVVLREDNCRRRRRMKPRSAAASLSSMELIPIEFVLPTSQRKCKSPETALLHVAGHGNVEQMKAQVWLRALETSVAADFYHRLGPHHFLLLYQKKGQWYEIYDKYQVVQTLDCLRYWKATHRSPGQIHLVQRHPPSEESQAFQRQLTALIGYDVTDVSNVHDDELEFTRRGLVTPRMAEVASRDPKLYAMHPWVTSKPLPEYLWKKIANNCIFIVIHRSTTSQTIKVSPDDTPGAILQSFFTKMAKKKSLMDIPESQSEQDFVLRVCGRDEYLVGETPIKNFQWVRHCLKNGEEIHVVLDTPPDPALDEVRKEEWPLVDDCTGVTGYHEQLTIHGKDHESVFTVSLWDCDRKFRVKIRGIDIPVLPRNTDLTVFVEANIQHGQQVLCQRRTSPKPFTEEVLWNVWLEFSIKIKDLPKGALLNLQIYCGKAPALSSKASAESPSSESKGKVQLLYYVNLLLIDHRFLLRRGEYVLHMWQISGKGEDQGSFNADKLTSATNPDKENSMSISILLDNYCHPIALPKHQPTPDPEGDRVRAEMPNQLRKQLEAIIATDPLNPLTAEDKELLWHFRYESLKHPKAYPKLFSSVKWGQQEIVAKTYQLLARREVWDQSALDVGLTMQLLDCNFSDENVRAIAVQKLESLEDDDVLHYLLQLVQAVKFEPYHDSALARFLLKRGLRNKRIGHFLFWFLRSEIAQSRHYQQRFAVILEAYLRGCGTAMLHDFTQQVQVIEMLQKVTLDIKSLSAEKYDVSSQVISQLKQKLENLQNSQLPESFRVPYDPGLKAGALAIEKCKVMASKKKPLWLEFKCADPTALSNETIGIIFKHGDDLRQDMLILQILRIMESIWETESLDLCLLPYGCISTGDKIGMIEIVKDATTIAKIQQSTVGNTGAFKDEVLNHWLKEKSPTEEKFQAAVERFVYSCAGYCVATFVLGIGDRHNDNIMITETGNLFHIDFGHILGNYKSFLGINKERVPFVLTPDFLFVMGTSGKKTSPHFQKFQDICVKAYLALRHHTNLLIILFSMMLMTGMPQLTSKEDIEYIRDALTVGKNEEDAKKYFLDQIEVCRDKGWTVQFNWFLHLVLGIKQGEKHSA
T2 sequence (P48736 whole entry): as above

In the case of `C[C@@H](C1CC1)N1Cc2cc(-c3ccn4nc(N)c(C(=O)NC5COC5)c4n3)cc(OC(F)(F)F)c2C1=O` [Example 21, 2-Amino-5-{2-[(1S)-1-cyclopropylethyl]-1-oxo-7-(trifluoromethoxy)-2,3-dihydro-1H-isoindol-5-yl}-N-(oxetan-3-yl)pyrazolo[1,5-a]pyrimidine-3-carboxamide], the IC50 (PI3Kγ (p120γ)) is reported as < 100 nM and the IC50 (PI3Kγ) is reported as < 100 nM.

For `C[C@H](CO)NC(=O)c1c(N)nn2ccc(-c3cc4c(c(OC(F)(F)F)c3)C(=O)N([C@@H](C)C3CC3)C4)nc12` [Example 22, 2-Amino-5-{2-[(1S)-1-cyclopropylethyl]-1-oxo-7-(trifluoromethoxy)-2,3-dihydro-1H-isoindol-5-yl}-N-[(2R)-1-hydroxypropan-2-yl]pyrazolo[1,5-a]pyrimidine-3-carboxamide], the IC50 (PI3Kγ (p120γ)) was < 100 nM and the IC50 (PI3Kγ) was < 100 nM.

`C[C@@H](C1CC1)N1Cc2cc(-c3ccn4nc(N)c(C(=O)N[C@H]5C[C@@](C)(O)C5)c4n3)cc(OC(F)(F)F)c2C1=O` [Example 23, 2-Amino-5-{2-[(1S)-1-cyclopropylethyl]-1-oxo-7-(trifluoromethoxy)-2,3-dihydro-1H-isoindol-5-yl}-N-[cis-3-hydroxy-3-methylcyclobutyl]pyrazolo[1,5-a]pyrimidine-3-carboxamide] was tested, and the IC50 (PI3Kγ (p120γ)) was < 100 nM and the IC50 (PI3Kγ) was < 100 nM.

With `C[C@@H](C1CC1)N1Cc2cc(-c3ccn4nc(N)c(C(=O)N[C@H]5CC[C@@](C)(O)CC5)c4n3)cc(OC(F)(F)F)c2C1=O` [Example 24, 2-Amino-5-{2-[(1S)-1-cyclopropylethyl]-1-oxo-7-(trifluoromethoxy)-2,3-dihydro-1H-isoindol-5-yl}-N-[cis-4-hydroxy-4-methylcyclohexyl]pyrazolo[1,5-a]pyrimidine-3-carboxamide] the IC50 (PI3Kγ (p120γ)) was < 100 nM and the IC50 (PI3Kγ) was < 100 nM.

For `CC(C)[C@H](CO)NC(=O)c1c(N)nn2ccc(-c3cc4c(c(OC(F)(F)F)c3)C(=O)N([C@@H](C)C3CC3)C4)nc12` [Example 25, 2-Amino-5-{2-[(1S)-1-cyclopropylethyl]-1-oxo-7-(trifluoromethoxy)-2,3-dihydro-1H-isoindol-5-yl}-N-[(2R)-1-hydroxy-3-methylbutan-2-yl]pyrazolo[1,5-a]pyrimidine-3-carboxamide], the IC50 (PI3Kγ (p120γ)) was < 100 nM and the IC50 (PI3Kγ) was < 100 nM.

For `C[C@@H](C1CC1)N1Cc2cc(-c3ccn4nc(N)c(C(=O)N[C@@H](CO)C5CC5)c4n3)cc(OC(F)(F)F)c2C1=O` [Example 26, 2-Amino-N-[(1R)-1-cyclopropyl-2-hydroxyethyl]-5-{2-[(1S)-1-cyclopropylethyl]-1-oxo-7-(trifluoromethoxy)-2,3-dihydro-1H-isoindol-5-yl}pyrazolo[1,5-a]pyrimidine-3-carboxamide], the IC50 (PI3Kγ (p120γ)) was < 100 nM and the IC50 (PI3Kγ) was < 100 nM.

For `C[C@H](CO)NC(=O)c1c(N)nn2ccc(-c3cc4c(c(OC(F)(F)F)c3)C(=O)N([C@@H](C)C(F)(F)F)C4)nc12` [Example 27, 2-Amino-N-[(2R)-1-hydroxypropan-2-yl]-5-[1-oxo-7-(trifluoromethoxy)-2-[(2S)-1,1,1-trifluoropropan-2-yl]-2,3-dihydro-1H-isoindol-5-yl]pyrazolo[1,5-a]pyrimidine-3-carboxamide], the IC50 (PI3Kγ (p120γ)) was < 100 nM and the IC50 (PI3Kγ) was < 100 nM.

For `C[C@@H](C1CC1)N1Cc2cc(-c3ccn4nc(N)c(C(=O)N[C@H]5CNC(=O)C5)c4n3)cc(OC(F)(F)F)c2C1=O` [Example 28, 2-Amino-5-{2-[(1S)-1-cyclopropylethyl]-1-oxo-7-(trifluoromethoxy)-2,3-dihydro-1H-isoindol-5-yl}-N-[(3R)-5-oxopyrrolidin-3-yl]pyrazolo[1,5-a]pyrimidine-3-carboxamide], the IC50 (PI3Kγ (p120γ)) was < 100 nM and the IC50 (PI3Kγ) was < 100 nM.

`C[C@@H](C1CC1)N1Cc2cc(-c3ccn4nc(N)c(C(=O)N[C@H]5CCC[C@@H](O)C5)c4n3)cc(OC(F)(F)F)c2C1=O` [Example 29, 2-Amino-5-{2-[(1S)-1-cyclopropylethyl]-1-oxo-7-(trifluoromethoxy)-2,3-dihydro-1H-isoindol-5-yl}-N-[(1S,3R)-3-hydroxycyclohexyl]pyrazolo[1,5-a]pyrimidine-3-carboxamide] was tested, and the IC50 (PI3Kγ (p120γ)) was < 100 nM and the IC50 (PI3Kγ) was < 100 nM.

In the case of `C[C@@H](C1CC1)N1Cc2cc(-c3ccn4nc(N)c(C(=O)N[C@H]5CC[C@H](C6(O)CC6)CC5)c4n3)cc(OC(F)(F)F)c2C1=O` [Example 30, 2-Amino-5-(2-((S)-1-cyclopropylethyl)-1-oxo-7-(trifluoromethoxy)isoindolin-5-yl)-N-(trans-4-(1-hydroxycyclopropyl)cyclohexyl)pyrazolo[1,5-a]pyrimidine-3-carboxamide], the IC50 (PI3Kγ (p120γ)) is reported as < 100 nM and the IC50 (PI3Kγ) is reported as < 100 nM.

In the case of `C[C@@H](C1CC1)N1Cc2cc(-c3ccn4nc(N)c(C(=O)N[C@H]5CC[C@H](N)CC5)c4n3)cc(OC(F)(F)F)c2C1=O` [Example 31, 2-Amino-5-{2-[(1S)-1-cyclopropylethyl]-1-oxo-7-(trifluoromethoxy)-2,3-dihydro-1H-isoindol-5-yl}-N-[trans-4-aminocyclohexyl]pyrazolo[1,5-a]pyrimidine-3-carboxamide], the IC50 (PI3Kγ (p120γ)) is reported as < 100 nM and the IC50 (PI3Kγ) is reported as < 100 nM.

For `C[C@@H](C1CC1)N1Cc2cc(-c3ccn4nc(N)c(C(=O)N[C@H]5CCNC5=O)c4n3)cc(OC(F)(F)F)c2C1=O` [Example 32, 2-Amino-5-{2-[(1S)-1-cyclopropylethyl]-1-oxo-7-(trifluoromethoxy)-2,3-dihydro-1H-isoindol-5-yl}-N-[(3S)-2-oxopyrrolidin-3-yl]pyrazolo[1,5-a]pyrimidine-3-carboxamide], the IC50 (PI3Kγ (p120γ)) was < 100 nM and the IC50 (PI3Kγ) was < 100 nM.

With `C[C@@H](C1CC1)N1Cc2cc(-c3ccn4nc(N)c(C(=O)N[C@@H]5CCC[C@H](N)C5)c4n3)cc(OC(F)(F)F)c2C1=O` [Example 33, 2-Amino-N-[(1R,3S)-3-aminocyclohexyl]-5-{2-[(1S)-1-cyclopropylethyl]-1-oxo-7-(trifluoromethoxy)-2,3-dihydro-1H-isoindol-5-yl}pyrazolo[1,5-a]pyrimidine-3-carboxamide] the IC50 (PI3Kγ (p120γ)) was < 100 nM and the IC50 (PI3Kγ) was < 100 nM.

With `C[C@@H](C1CC1)N1Cc2cc(-c3ccn4nc(N)c(C(=O)N[C@@H]5CCC[C@H](N(C)C)C5)c4n3)cc(OC(F)(F)F)c2C1=O` [Example 34, 2-Amino-5-{2-[(1S)-1-cyclopropylethyl]-1-oxo-7-(trifluoromethoxy)-2,3-dihydro-1H-isoindol-5-yl}-N-[(1R,3S)-3-(dimethylamino)cyclohexyl]pyrazolo[1,5-a]pyrimidine-3-carboxamide] the IC50 (PI3Kγ (p120γ)) was < 100 nM and the IC50 (PI3Kγ) was < 100 nM.

`C[C@@H](C1CC1)N1Cc2cc(-c3ccn4nc(N)c(C(=O)N[C@@H]5CCC[C@H]5O)c4n3)cc(OC(F)(F)F)c2C1=O` [Example 35, 2-Amino-5-{2-[(1S)-1-cyclopropylethyl]-1-oxo-7-(trifluoromethoxy)-2,3-dihydro-1H-isoindol-5-yl}-N-[(1R,2R)-2-hydroxycyclopentyl]pyrazolo[1,5-a]pyrimidine-3-carboxamide] was tested, and the IC50 (PI3Kγ (p120γ)) was < 100 nM and the IC50 (PI3Kγ) was < 100 nM.

In the case of `C[C@@H](C1CC1)N1Cc2cc(-c3ccn4nc(N)c(C(=O)N[C@H]5CC[C@H](O)C5)c4n3)cc(OC(F)(F)F)c2C1=O` [Example 36, 2-Amino-5-{2-[(1S)-1-cyclopropylethyl]-1-oxo-7-(trifluoromethoxy)-2,3-dihydro-1H-isoindol-5-yl}-N-[(1S,3S)-3-hydroxycyclopentyl]pyrazolo[1,5-a]pyrimidine-3-carboxamide], the IC50 (PI3Kγ (p120γ)) is reported as < 100 nM and the IC50 (PI3Kγ) is reported as < 100 nM.

With `C[C@@H](C1CC1)N1Cc2cc(-c3ccn4nc(N)c(C(=O)N[C@@H]5CC[C@@H](O)C5)c4n3)cc(OC(F)(F)F)c2C1=O` [Example 37, 2-Amino-5-{2-[(1S)-1-cyclopropylethyl]-1-oxo-7-(trifluoromethoxy)-2,3-dihydro-1H-isoindol-5-yl}-N-[(1R,3R)-3-hydroxycyclopentyl]pyrazolo[1,5-a]pyrimidine-3-carboxamide] the IC50 (PI3Kγ (p120γ)) was < 100 nM and the IC50 (PI3Kγ) was < 100 nM.
